Measured values: patent US8420692B1, “Heterocyclic and carbonate derivatives of NDGA and their use as new anti-HIV and anti-cancer agents” (The Johns Hopkins University, priority 2006, dated 2013)
Read-outs that look alike come from different tables or passages of the source.

How the values were obtained:
[1] = system: HIV Tat-regulated transactivation; experiment: cells; type: cell-based; conditions: for Inhibition (%) of HIV Tat-regulated Transactivation in COS Cells: average of three experiments; for IC50: read-out: IC50, HIV Tat-regulated transactivation
Experimental: The COS cells were co-transfected with a Tat-producing plasmid and a plasmid containing the HIV LTR linked to the SeAP reporter gene. Transfected cells were treated with various concentrations of 5b P4N. After 48 h, aliquots of media were removed and analysis of SeAP activity was performed. The percent inhibition of SeAP activity by 5b P4N ? was calculated in comparison with the percent of growth inhibition of untransfected COS cells by P4N ?
The medium used for dilution of compounds and maintenance of cultures during the assay was the same as described above. Cultures were maintained in disposable tissue culture labware at 37° C. in a humidified atmosphere of CO2 (5.0%) in air. Compounds were dissolved as stock solutions in water or dimethyl sulfoxide (DMSO) at the concentration of 10 mM. The stock solutions were diluted with H2O (5a-d) or DMSO (6a,b and 7) and dilute by medium to the desired concentration by a 30-s vortex just before addition into the cell culture. Triplicate cell samples were seeded at density of ˜1.5×10^4 cell per well in Libro 24-well flat-bottom culture dishes (17-mm diameter), which were incubated for 24 h until they reached 50% confluence. The cells were cotransfected by the calcium phosphate procedure with DNA from plasmids pBC12/CMV/t2 (coding for Tat function, 0.20 μg/well) and pBC12/HIV/SeAP (0.40 μg/well). Cells and DNAs were kept in contact for 6.0 h; then the medium was aspirated and replaced by 500 μL of medium containing the test compound. The compound-treated cells were then incubated for additional 48 h. At the end of incubation, an aliquot of cell culture medium was removed and SeAP activities were analyzed by spectrametric method.^20 The sample of culture medium were heated at 65° C. for 5.0 min to inactivate endogenous phosphatases selectively (SeAP is thermal stable). The buffer solution of 2×SeAP (100 μL, 1.0 M diethanolamine, pH 9.8; 0.50 mM MgCl2; 10 mM L-homoarginine) was added to the culture medium sample (100 μL) in a 96-well flat-bottom culture dish (Corning). Then, the substrate solution ([…], 120 mM, p-nitrophenyl phosphate dissolved in 1×SeAP buffer) was dispensed into each well containing the reaction mixture. The absorbance at wavelength 405 nm specific for the hydrolysis product was read at 2.5 min intervals at 37° C. over the course of 60 min on an EL340i microplate reader (Bio-tek Instruments) with 5 s automatic shaking before each reading.
Two plasmid constructs^19 were used to test the effect of synthesized NDGA derivatives on Tat-regulated HIV transactivation as described previously.^12,13,19 The plasmid constructs included a cytomegalovirus (CMV) promoter driven tat gene and SP1 regulated HIV LTR promoter driven reporter gene (i.e., SeAP). A standard SeAP assay in the absence of drug was initially run to find out efficiency of transfection.

[2] = Stability in aqueous solution (time dependent UV spectra); type: physicochemical
Experimental: FIG. 1: Stability of Two NDGA Derivatives G4N and P4N(HCl salts) in Aqueous Solution. Time Dependent Changes in UV spectra showing (a) G4N is unstable and (b) meso-2,3-dimethyl-1,4-bis(3,4-[2-piperidino)ethoxyphenyl])butane (P4N) (compound 5b in Scheme 1) (day 1, 2, 8, 13, 28) is stable in Milli-Q water after 28 days at 20° C.
The new NDGA derivatives (Scheme 1) were found stable in aqueous solution; >99% of these compounds remained intact after 28 days (see FIG. 1(b)). In a sharp contrast, >96% G4N (4) decomposed in aqueous solution within 24 h (see FIG. 1(a)).

[3] = system: HIV Tat-regulated transactivation; conditions: values from references 9 and 12; read-out: IC50, Tat-regulated SeAP production (reference compounds); cited from earlier work
[4] = COS cells, SeAP, mean of triplicate determinations
[5] = Human immunodeficiency virus 1, COS, read-out: Inhibition (%) of HIV Tat-regulated Transactivation in COS Cells

SMILES | Inhibition (%) of HIV Tat-regulated Transactivation in COS Cells ([1]; 0.10 μM) | Inhibition (%) of HIV Tat-regulated Transactivation in COS Cells ([1]; 0.25 μM) | Inhibition (%) of HIV Tat-regulated Transactivation in COS Cells ([1]; 0.50 μM) | Inhibition (%) of HIV Tat-regulated Transactivation in COS Cells ([1]; 1.0 μM) | Inhibition (%) of HIV Tat-regulated Transactivation in COS Cells ([1]; 2.5 μM) | Inhibition (%) of HIV Tat-regulated Transactivation in COS Cells ([1]; 5.0 μM) | Inhibition (%) of HIV Tat-regulated Transactivation in COS Cells ([1]; 10 μM) | Inhibition (%) of HIV Tat-regulated Transactivation in COS Cells ([1]; 20 μM) | Inhibition (%) of HIV Tat-regulated Transactivation in COS Cells ([1]; 40 μM) | Inhibition (%) of HIV Tat-regulated Transactivation in COS Cells ([1]; 80 μM) | Inhibition (%) of HIV Tat-regulated Transactivation in COS Cells ([1]; 100 μM) | IC50 [1, 4] | IC50 [3] | other results
C[C@H](Cc1ccc(OCCN2CCCC2)c(OCCN2CCCC2)c1)[C@@H](C)Cc1ccc(OCCN2CCCC2)c(OCCN2CCCC2)c1.Cl.Cl.Cl.Cl [Compound 5a, meso-2,3-Dimethyl-1,4-bis(3,4-[2-(pyrrolidino)ethoxyphenyl])butane Tetrakishydrochloride Salt] | 18.1% | 15.4% | 27.2% | 19.6% | 31.0% | 14.1% | 26.3% | 59.1% | 94.8% | 97.1% | 100% | 17.2 µM |  | 
C[C@H](Cc1ccc(OCCN2CCOCC2)c(OCCN2CCOCC2)c1)[C@@H](C)Cc1ccc(OCCN2CCOCC2)c(OCCN2CCOCC2)c1.Cl.Cl.Cl.Cl [Compound 5c, meso-2,3-Dimethyl-1,4-bis(3,4-[2-(morpholino)ethoxyphenyl])butane Tetrakishydrochloride Salt] | 5.0% | 16.5% | 9.9% | 8.1% | 4.6% | 13.3% | 25.4% | 58.9% | 86.0% | 96.8% | 100% | 17.3 µM |  | 
C[C@H](Cc1ccc(OCCCN2CCOCC2)c(OCCCN2CCOCC2)c1)[C@@H](C)Cc1ccc(OCCCN2CCOCC2)c(OCCCN2CCOCC2)c1.Cl.Cl.Cl.Cl [Compound 5d, meso-2,3-Dimethyl-1,4-bis(3,4-[3-(morpholino)propoxyphenyl])butane Tetrakishydrochloride Salt] | 15.0% | 15.9% | 10.6% | 9.5% | 52.7% | 89.5% | 96.0% | 99.9% | 99.8% | 100% | 89.5% | 2.41 µM |  | 
C[C@H](Cc1ccc(OC(=O)N2CCCCC2)c(OC(=O)N2CCCCC2)c1)[C@@H](C)Cc1ccc(OC(=O)N2CCCCC2)c(OC(=O)N2CCCCC2)c1 [Compound 6a, meso-2,3-Dimethyl-1,4-bis[3,4-(phenylpiperidine-1-carboxylate)]butane] | 0% | 3.5% | 5.8% | 11.7% | 46.2% | 78.6% | 84.0% | 86.1% | 83.8% | 90.1% | 89.8% | 2.79 µM |  | 
COC(=O)Oc1ccc(C[C@@H](C)[C@@H](C)Cc2ccc(OC(=O)OC)c(OC(=O)OC)c2)cc1OC(=O)OC [Compound 6b, meso-2,3-Dimethyl-1,4-bis[3,4-(methylphenyl carbonate)]butane] | 9.8% | 12.3% | 16.0% | 13.1% | 15.1% | 38,0% | 51,6% | 58.4% | 70.8% | 93.4% | 88.9% | 9.41 µM |  | 
C[C@H](Cc1ccc2oc(=O)oc2c1)[C@@H](C)Cc1ccc2oc(=O)oc2c1 [Compound 7, meso-2,3-Dimethyl-1,4-bis(benzo[d][1,3]-dioxol-2-one)butane] |  |  |  |  |  |  |  |  |  |  |  |  |  | melting point: 172.6 to 173.4 °C; IC50 ([1]; Human immunodeficiency virus 1, COS): 8.54 µM; inhibition at 0.1 µM [1, 5]: 7.5%; inhibition at 0.25 µM [1, 5]: 18.1%; inhibition at 0.5 µM [1, 5]: 4.2%; inhibition at 1 µM [1, 5]: 5.9%; inhibition at 2.5 µM [1, 5]: 23.7%; inhibition at 5 µM [1, 5]: 47.1%; inhibition at 10 µM [1, 5]: 51.2%; inhibition at 20 µM [1, 5]: 68.8%; inhibition at 40 µM [1, 5]: 85.7%; inhibition at 80 µM [1, 5]: 96.3%; inhibition at 100 µM [1, 5]: 91.6%
C[C@H](Cc1ccc(OC(=O)CN(C)C)c(OC(=O)CN(C)C)c1)[C@@H](C)Cc1ccc(OC(=O)CN(C)C)c(OC(=O)CN(C)C)c1 [Compound G4N, (tetra-O-dimethylglycyl)nordihydroguaiaretic acid] |  |  |  |  |  |  |  |  |  |  |  |  |  | Stability in Milli-Q water (UV spectra) ([2]; HCl salts, 28 days at 20° C., FIG. 1): unstable; Compound decomposed in aqueous solution ([2]; within 24 h): > 96%
COc1ccc(C[C@@H](C)[C@@H](C)Cc2ccc(OC)c(OC)c2)cc1OC [Compound M4N, (tetra-O-methyl)nordihydroguaiaretic acid] |  |  |  |  |  |  |  |  |  |  |  |  | 11.1 µM | 
COc1cc(C[C@H](C)[C@H](C)Cc2ccc(O)c(O)c2)ccc1O [Mal.4] |  |  |  |  |  |  |  |  |  |  |  |  | 25 µM | 
C[C@H](Cc1ccc(O)c(O)c1)[C@@H](C)Cc1ccc(O)c(O)c1 [NDGA, Nordihydroguaiaretic acid] |  |  |  |  |  |  |  |  |  |  |  |  | 20 µM | 
